Tests used:
[1] = system: O. cumana seeds; details: at nanomolar and micromolar concentrations; sunflower root exudates; cited from earlier work
[2] = system: O. cumana; assay: Biological activities of the four O. cumana germination stimulants detected in stimulants collected under the aeroponic system (UHPLC-TQ-MS detection); set-up: species or system Orobanche cumana; details: collected sunflower root exudate stimulants
Excerpt: 7) The ultra-high performance liquid chromatograph-triple quadrupole mass spectrometry (UHPLC-TQ-MS) was adopted to separate and detect the components of obtained O. cumana germination stimulants. The O. cumana germination stimulants in sunflower root exudates were identified using ultra-high performance liquid chromatography-mass spectrometry (UHPLC-MS/MS), and analyzed using Micromass Quattro Premier XE tandem mass spectrometer (Waters, USA). The mass spectrometer was equipped with an electrospray ionization source (ESI) and combined with a UHPLC system. Chromatographic conditions: UHPLC C18 column (100 mm×2.1 mm, 1.7 μm), and mobile phase: water-methanol. Gradient elution process: 30% methanol for 1 min; 5 min of transition to 80% methanol, and holding at 80% methanol for 1 min; and 0.2 min of transition back to 30% methanol. The column was equilibrated in this solvent composition for 1.8 min before proceeding to the next run. Each run: 9 min; column temperature: 50° C.; flow rate: 0.4 mL/min; and injection volume: 30 μl. MS conditions: ESI, in positive ion scanning mode; gas flow rates of atomizer and desolventizing: 50|h^−1 and 800|h^−1, respectively; capillary voltage: 2.7 kV; extraction cone voltage: 20 V, source temperature: 120° C.; and desolventizing gas temperature: 450° C. 3.0×10^−3 mbar argon was used for collision to induce dissociation and fragmentation. The collision energy for each compound was optimized. Multiple response monitoring (MRM) scanning mode was adopted to search for O. cumana germination stimulants. Mass-to-charge ratio scan range data can be found in (Raupp & Spring 2013; Ueno et al. 2014). In this experiment, based on previous literature data, four types of O. cumana germination stimulants were selected for detection. Three are biologically-active sesquiterpenes isolated from O. cumana germination stimulants, namely, dehydrocostus lactone, costunolide, and 8-epixanthatin, and the remaining one is a non-sesquiterpene, namely, heliolactone.

Molecule | stimulation of the germination of O. cumana seeds [1] | biological activity as O. cumana germination stimulant [2]
C=C1C(=O)O[C@@H]2C[C@H](C)C(CCC(C)=O)=CC[C@H]12 [tomentosin] | can stimulate the germination | 
C=C1CC[C@H]2C(=C)CC[C@H]3C(=C)C(=O)O[C@@H]3[C@@H]12 [dehydrocostus lactone] |  | high activities
C=C1C(=O)O[C@@H]2C[C@H](C)C(/C=C/C(C)=O)=CC[C@H]12 [8-epixanthatin] | can stimulate the germination | high activities
heliolactone |  | very low activity
C=C1C(=O)O[C@@H]2/C=C(\C)CC/C=C(\C)CC[C@@H]12 [costunolide] | can stimulate the germination | high activities

From US12185726B2, “Method for efficiently collecting and purifying Orobanche cumana (O. cumana) germination stimulants using aeroponic system and solid-phase extraction (SPE)” (ZHEJIANG UNIVERSITY, priority 2019, dated 2025)
